Measurements taken from ChEMBL document CHEMBL3508693 (2016).

Assays:
CYP2A6 = target: T1, CYP2A6 (Homo sapiens, UniProt P11509); test: Inhibitory activity of 20 uM SPP100 on 39 Pmoles of cDNA-derived CYP2A6 enzyme in microsome prepared from human lymphoblastoid cell line; format: ADME, microsomes; design: conc 20 uM, interact cpd conc 3 uM; details: probe coumarine
T1 sequence (P11509 whole entry): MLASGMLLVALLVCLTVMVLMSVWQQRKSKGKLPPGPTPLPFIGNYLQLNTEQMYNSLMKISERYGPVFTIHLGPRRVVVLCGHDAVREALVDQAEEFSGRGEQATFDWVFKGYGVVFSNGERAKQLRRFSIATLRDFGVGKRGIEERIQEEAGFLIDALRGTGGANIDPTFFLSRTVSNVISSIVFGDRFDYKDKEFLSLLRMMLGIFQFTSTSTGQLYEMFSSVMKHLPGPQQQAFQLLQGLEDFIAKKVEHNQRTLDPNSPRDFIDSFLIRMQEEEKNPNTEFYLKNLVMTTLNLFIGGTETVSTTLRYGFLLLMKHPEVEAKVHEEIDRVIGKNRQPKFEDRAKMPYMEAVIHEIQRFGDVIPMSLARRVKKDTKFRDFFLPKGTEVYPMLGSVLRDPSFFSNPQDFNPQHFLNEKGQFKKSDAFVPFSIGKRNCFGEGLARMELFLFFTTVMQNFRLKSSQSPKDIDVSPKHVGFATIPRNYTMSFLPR

[1] = Terminal elimination half-life of SPP100 following single oral dose of SPP100 300 mg capsule studied in healthy human; format: ADME, organism-based; details: plasma
CYP1A2 = target: T2, CYP1A2 (Homo sapiens, UniProt P05177); test: Inhibition of CYP1A2 in human liver microsomes from 10 healthy donors at 200 uM aliskiren (SPP100); format: ADME, Microsome; design: conc 200 uM; details: probe phenacetin (O-deethylation)
T2 sequence (P05177 whole entry): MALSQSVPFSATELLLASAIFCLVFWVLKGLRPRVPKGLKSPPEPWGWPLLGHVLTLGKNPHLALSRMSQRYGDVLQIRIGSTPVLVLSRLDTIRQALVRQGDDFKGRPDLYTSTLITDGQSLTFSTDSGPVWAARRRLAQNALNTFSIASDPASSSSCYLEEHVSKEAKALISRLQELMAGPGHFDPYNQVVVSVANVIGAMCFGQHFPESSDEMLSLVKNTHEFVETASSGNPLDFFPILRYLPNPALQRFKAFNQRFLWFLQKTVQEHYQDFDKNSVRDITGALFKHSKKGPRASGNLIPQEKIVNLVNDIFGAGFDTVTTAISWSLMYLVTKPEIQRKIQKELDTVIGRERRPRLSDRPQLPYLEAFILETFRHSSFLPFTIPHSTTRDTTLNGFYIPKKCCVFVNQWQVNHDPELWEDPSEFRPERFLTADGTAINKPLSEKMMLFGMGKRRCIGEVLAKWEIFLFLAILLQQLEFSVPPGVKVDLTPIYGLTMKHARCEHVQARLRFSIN

[2] = % of radioactivity recovered as aliskiren in plasma following oral administration of [14C] aliskiren hemifumarate at 100 mg.Kg-1 level in rat; format: ADME, organism-based, Albino HAN:WIST; details: in vivo
[3] = % SPP100 in faeces following single oral dose of 300 mg [14C]SPP100 studied in healthy men; format: ADME, organism-based, Feces; details: human, in vivo, at 300 mg
[4] = % of radioactivity (48h) recovered in cage wash of receiver rat following duodenal infusion of radioactivity through bile from donor rat treated with single intravenous administration of 10 mg.Kg-1 [14C] aliskiren hemifumarate; format: ADME, organism-based, HAN:WIST(SPF); details: in vivo
[5] = Excretion of radioactivity (48-72h) in faeces following single oral dose of 100 mg.Kg-1 [14C] aliskiren hemifumarate in rat; format: ADME, organism-based, Albino HAN:WIST, Feces; details: in vivo
[6] = Excretion (0-24h) of radioactivity in faeces following oral administration of [14C] aliskiren hemifumarate at 3 mg.Kg-1 level in marmoset; format: ADME, organism-based, Callithrix jacchus, Feces; details: in vivo
[7] = Excretion (24h) of radioactivity in urine following intravenous administration of [14C] aliskiren hemifumarate at 10 mg.Kg-1 level in rat; format: ADME, organism-based, Lister-Hooded; details: in vivo
[8] = Excretion of radioactivity (0-384h) in urine following 10 day repeated oral administration of [14C] aliskiren hemifumarate at 100 mg.Kg-1 level studied in rat; format: ADME, organism-based, Albino HAN:WIST; details: in vivo
[9] = Excretion of radioactivity (24-48h) in urine following single oral dose of 500 mg.Kg-1 [14C] aliskiren hemifumarate in mouse; format: ADME, organism-based, TgRasH2; details: in vivo
[10] = Mean excretion of radioactivity (0-24h) in urine and faeces following single intravenous dose of 10 mg.Kg-1 [14C] aliskiren hemifumarate in rat; format: ADME, organism-based, Albino HAN:WIST, Urine/Feces; details: in vivo
Cytochrome P450 2D6 = Cytochrome P450 2D6 (Homo sapiens, UniProt P10635); test: Metabolic clearance (ul.min.nmol-1 CYP) of aliskiren hemifumarate for CYP2D6 was determined in human liver microsome incubated with [14C]SPP100 hemifumarate; format: ADME; details: microsomes
Chain of Cytochrome P450 2D6 (P10635 whole entry): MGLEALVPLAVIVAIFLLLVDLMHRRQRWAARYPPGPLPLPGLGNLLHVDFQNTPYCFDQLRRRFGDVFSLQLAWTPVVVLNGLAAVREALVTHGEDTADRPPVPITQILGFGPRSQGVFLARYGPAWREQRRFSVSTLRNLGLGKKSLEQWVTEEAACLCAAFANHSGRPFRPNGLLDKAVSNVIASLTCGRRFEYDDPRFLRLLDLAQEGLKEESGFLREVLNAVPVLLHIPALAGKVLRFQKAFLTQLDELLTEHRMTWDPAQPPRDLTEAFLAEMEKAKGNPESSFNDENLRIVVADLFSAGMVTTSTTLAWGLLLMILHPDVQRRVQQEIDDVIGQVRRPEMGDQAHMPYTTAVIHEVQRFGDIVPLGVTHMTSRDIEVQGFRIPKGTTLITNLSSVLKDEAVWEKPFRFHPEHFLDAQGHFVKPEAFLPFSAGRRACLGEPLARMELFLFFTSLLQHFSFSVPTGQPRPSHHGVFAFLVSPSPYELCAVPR

[11] = Excretion (0-168h) of 14C-radioactivity in urine following single oral dose of 300 mg [14C]SPP100 studied in healthy men; format: ADME, organism-based; details: human, in vivo, at 300 mg
[12] = Tmax of [14C] aliskiren hemifumarate following single intravenous dose of [14C] aliskiren hemifumarate at 10 mg.Kg-1 level in mouse; format: ADME, organism-based, TgRasH2, Plasma; details: in vivo
[13] = Excretion (48h) of radioactivity in urine following oral administration of [14C] aliskiren hemifumarate at 100 mg.Kg-1 level in rat; format: ADME, organism-based, Lister-Hooded; details: in vivo
[14] = Excretion of radioactivity (24-48h) in urine following single intravenous dose of 10 mg.Kg-1 [14C] aliskiren hemifumarate in rat; format: ADME, organism-based, Albino HAN:WIST; details: in vivo
[15] = Mean excretion of radioactivity (48-72h) in urine and faeces following single intravenous dose of 10 mg.Kg-1 [14C] aliskiren hemifumarate in rat; format: ADME, organism-based, Albino HAN:WIST, Urine/Feces; details: in vivo
[16] = AUC of aliskiren hemifumarate following 8 day once-daily dosing of SPP100B oral solution at 80 mg level studied on day 8 in men; format: ADME, organism-based; details: male, human, plasma
[17] = Cmax of aliskiren hemifumarate following 4 week oral dietary dosing of aliskiren hemifumarate at 1500 mg.Kg-1 level in female mouse; format: ADME, organism-based; details: CB6F1-TGrasH2, mouse, in vivo
[18] = Effect of 2 week oral dosing of aliskiren hemifumarate at 10 mg.Kg-1 level on hematological parameter values in female Callithrix jacchus; format: toxicity, organism-based, Plasma; details: marmoset, in vivo, 336 h
[19] = AUCss(tau)/dose of aliskiren hemifumarate following repeated oral administration of [14C] aliskiren hemifumarate at 100 mg.Kg-1 level studied in rat; format: ADME, organism-based, Albino HAN:WIST, Plasma; details: in vivo
[20] = Cmax of aliskiren hemifumarate following repeated oral administration of [14C] aliskiren hemifumarate at 100 mg.Kg-1 level studied after 2h of dosing on day 1 in rat; format: ADME, organism-based, Albino HAN:WIST; details: in vivo, read-out: Cmax(1)
[21] = AUC infinity of aliskiren hemifumarate following 2 week oral dosing of aliskiren hemifumarate at 50 mg.Kg-1 level studied on day 1 in male Callithrix jacchus; format: ADME, organism-based; details: marmoset, plasma, read-out: AUC infinity
[22] = AUC of unlabeled aliskiren hemifumarate following single oral dose of aliskiren hemifumarate at 500 mg.Kg-1 level in mouse; format: ADME, organism-based; details: TgRasH2, mouse, plasma
[23] = AUCspec of aliskiren hemifumarate following 2 week oral dosing of aliskiren hemifumarate at 100 mg.Kg-1 level studied on day 14 in female Callithrix jacchus; format: ADME, organism-based, Plasma; details: marmoset, in vivo, 336 h
[24] = Cmax normalised (0-168h) of unlabeled aliskiren hemifumarate following single oral administration of aliskiren hemifumarate at 3 mg.Kg-1 level in marmoset; format: ADME, organism-based, Callithrix jacchus, Plasma; details: in vivo

COCCCOc1cc(C[C@@H](C[C@H](N)[C@@H](O)C[C@H](C(=O)NCC(C)(C)C(N)=O)C(C)C)C(C)C)ccc1OC
inhibition at 20 µM (CYP2A6): -2.1% | half-life [1]: 37 h | inhibition at 200 µM (CYP1A2): 15.2% | Compound recovery [2]: > 40% | Compound recovery [3]: 77.5%

COCCCOc1cc(C[C@@H](C[C@H](N)[C@@H](O)C[C@H](C(=O)NCC([14CH3])([14CH3])C(N)=O)C(C)C)C(C)C)ccc1OC.O=C(O)/C=C/C(=O)O
Radiolabel recovery [4]: 4% | Radiolabel recovery [5]: 0.36% | Radiolabel recovery [6]: 84% | Radiolabel recovery [7]: 10% | Radiolabel recovery [8]: 0.3% | Radiolabel recovery [9]: 1.02% | Radiolabel recovery [10]: 58.6% | CL (Cytochrome P450 2D6): 74.4 µL·min/nmol | Radiolabel recovery [11]: 0.6% | Tmax [12]: 4.98 min | Radiolabel recovery [13]: 0.576% | Radiolabel recovery [14]: 40% | Radiolabel recovery [15]: 5.05%

COCCCOc1cc(C[C@@H](C[C@H](N)[C@@H](O)C[C@H](C(=O)NCC(C)(C)C(N)=O)C(C)C)C(C)C)ccc1OC.COCCCOc1cc(C[C@@H](C[C@H](N)[C@@H](O)C[C@H](C(=O)NCC(C)(C)C(N)=O)C(C)C)C(C)C)ccc1OC.O=C(O)/C=C/C(=O)O [ALISKIREN FUMARATE]
AUC at 192 h [16]: 137 ng·h/mL | Cmax [17]: 1020 ng/mL | Change in hematology [18]: OUTCOME = Hematological parameter values did not differ from control values. No animals died during the study. | AUCss(tau) normalised [19]: 10 (nmol.h.L-1)/(mg/kg) | Cmax [20]: 639 nM | AUC(0-inf) [21]: 64000 ng·h/mL | AUC [22]: 7.04 µM·h | AUC normalised [23]: 1.42 ((ug.h.ml-1)/(mg/kg) | Cmax normalised [24]: 0.132 (umol/L)/(mg/kg)
